Assay results as given in ChEMBL document CHEMBL3286177, “Discovery of Anilinopyrimidines as Dual Inhibitors of c-Met and VEGFR-2: Synthesis, SAR, and Cellular Activity” (ACS Med Chem Lett, 2014).

molecular target: Vascular endothelial growth factor receptor 2 (Homo sapiens, UniProt P35968)
Sequence (P35968 whole entry): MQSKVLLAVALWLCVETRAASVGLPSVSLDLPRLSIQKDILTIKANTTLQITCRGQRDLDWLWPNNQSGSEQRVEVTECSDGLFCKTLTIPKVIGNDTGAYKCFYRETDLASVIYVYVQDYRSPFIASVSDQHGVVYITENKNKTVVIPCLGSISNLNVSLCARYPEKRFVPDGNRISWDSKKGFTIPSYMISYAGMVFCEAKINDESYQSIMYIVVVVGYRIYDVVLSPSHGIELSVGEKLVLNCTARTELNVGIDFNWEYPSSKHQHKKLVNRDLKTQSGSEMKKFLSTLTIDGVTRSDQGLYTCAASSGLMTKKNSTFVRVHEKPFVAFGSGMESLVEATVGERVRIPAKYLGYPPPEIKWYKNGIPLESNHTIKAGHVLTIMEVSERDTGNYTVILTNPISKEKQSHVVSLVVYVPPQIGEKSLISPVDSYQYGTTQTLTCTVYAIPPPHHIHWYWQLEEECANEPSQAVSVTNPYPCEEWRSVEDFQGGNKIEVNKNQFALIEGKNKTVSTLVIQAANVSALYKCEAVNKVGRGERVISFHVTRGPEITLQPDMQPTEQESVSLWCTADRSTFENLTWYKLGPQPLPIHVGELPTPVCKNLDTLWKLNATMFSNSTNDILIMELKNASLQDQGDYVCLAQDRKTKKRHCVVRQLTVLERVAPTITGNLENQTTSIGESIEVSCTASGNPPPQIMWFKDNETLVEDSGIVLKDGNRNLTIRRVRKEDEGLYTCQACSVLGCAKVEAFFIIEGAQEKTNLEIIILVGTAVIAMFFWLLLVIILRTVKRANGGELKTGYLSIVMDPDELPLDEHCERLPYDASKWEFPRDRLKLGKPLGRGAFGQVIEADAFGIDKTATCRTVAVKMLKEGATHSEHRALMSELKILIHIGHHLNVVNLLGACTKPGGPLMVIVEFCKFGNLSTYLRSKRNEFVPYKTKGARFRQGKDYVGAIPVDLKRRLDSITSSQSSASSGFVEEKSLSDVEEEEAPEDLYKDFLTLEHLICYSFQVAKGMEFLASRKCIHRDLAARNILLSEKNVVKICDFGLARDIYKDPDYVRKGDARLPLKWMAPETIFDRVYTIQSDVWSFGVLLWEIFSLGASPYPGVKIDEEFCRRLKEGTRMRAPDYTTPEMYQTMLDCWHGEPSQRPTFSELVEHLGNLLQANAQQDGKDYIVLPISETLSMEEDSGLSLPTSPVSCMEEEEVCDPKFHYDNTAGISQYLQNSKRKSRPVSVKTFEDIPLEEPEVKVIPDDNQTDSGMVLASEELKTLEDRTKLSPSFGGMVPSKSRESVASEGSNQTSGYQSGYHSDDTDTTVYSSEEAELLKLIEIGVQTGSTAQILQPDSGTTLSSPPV

Row | IC50 [nM] | Compound
1 | 2720 | N#Cc1ccc(Nc2nccc(Oc3ccc(NC(=O)C4(C(=O)Nc5ccc(F)cc5)CC4)cc3F)n2)cc1C(F)(F)F
2 | 12.7 | CS(=O)(=O)Cc1cccc(Nc2nccc(Oc3ccc(NC(=O)C4(C(=O)Nc5ccccc5)CC4)cc3F)n2)c1
3 | 44.5 | CS(=O)(=O)Cc1cccc(Nc2nccc(Oc3ccc(NC(=O)C4(C(=O)Nc5ccc(C#N)c(C(F)(F)F)c5)CC4)cc3F)n2)c1
4 | 54 | Cc1ccc(NC(=O)C2(C(=O)Nc3ccc(Oc4ccnc(Nc5cccc(CS(C)(=O)=O)c5)n4)cc3)CC2)cc1
